PMC10245910 (bioRxiv, 2023)

Assays:
BesD [1] = target: T1, BesD (Streptantibioticus cattleyicolor, UniProt G8XHD5); experiment: UV-Vis MLCT shift; type: biochemical; details: BesD-Fe-2OG complex with lysine; anaerobic UV-Vis
T1 sequence (G8XHD5 1-242): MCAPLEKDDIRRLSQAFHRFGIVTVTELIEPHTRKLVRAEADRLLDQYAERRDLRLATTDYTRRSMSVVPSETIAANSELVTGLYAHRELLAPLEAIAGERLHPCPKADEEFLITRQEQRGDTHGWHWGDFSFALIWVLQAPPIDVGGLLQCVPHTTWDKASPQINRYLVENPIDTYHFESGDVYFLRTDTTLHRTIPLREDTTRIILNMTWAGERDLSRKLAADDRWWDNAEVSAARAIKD

BesD [2] = target: T1, BesD; experiment: UV-Vis MLCT band; type: binding; details: Fe(II) added; co-substrate
BesD [3] = target: T1, BesD; experiment: UV-Vis MLCT shift; type: biochemical; details: BesD-Fe-2OG complex with lysine; anaerobic UV-Vis; remark: listed apart in the source
BesD [4] = target: T1, BesD; experiment: biochemical

[N-]=[N+]=[N-] [azide]
UV-Vis MLCT shift; UPLC-MS/MS of azidation product (BesD [1]): perturbations of the MLCT band with azide and bromide are minimal until the addition of lysine

O=C(O)CCC(=O)C(=O)O [2-oxoglutarate]
UV-Vis MLCT band (BesD [2]): Upon the addition of Fe^II and 2OG to BesD, an MLCT band forms

Br [bromide]
UV-Vis MLCT shift; UPLC-MS/MS of bromination product (BesD [3]): perturbations of the MLCT band with azide and bromide are minimal until the addition of lysine

NCCCC[C@H](N)C(=O)O [lysine]
Kd (BesD [4]): 50 µM
